Measurements published in publication PMC9574860, “Chemical Toolkit for PARK7: Potent, Selective, and High-Throughput” (Journal of Medicinal Chemistry, 2022).

Columns and labels:
PARK7 [1] = target: T1, PARK7 (Homo sapiens, UniProt Q99497); assay: DiFMUAc PARK7 activity assay; assay type: biochemical; design: GST (N, cleaved yes); made in house; host or cells: E. coli BL21(DE3) Rosetta2; details: for inhibition at 12.5 µM: read-out: DiFMuAc assay %Inhibiton (12.5 µM); for inhibition at 37.5 µM: read-out: DiFMuAc assay %Inhibiton (37.5 µM); for inhibition at 100 µM: read-out: DiFMuAc assay %Inhibiton (100 µM)
T1 sequence (Q99497 1-189): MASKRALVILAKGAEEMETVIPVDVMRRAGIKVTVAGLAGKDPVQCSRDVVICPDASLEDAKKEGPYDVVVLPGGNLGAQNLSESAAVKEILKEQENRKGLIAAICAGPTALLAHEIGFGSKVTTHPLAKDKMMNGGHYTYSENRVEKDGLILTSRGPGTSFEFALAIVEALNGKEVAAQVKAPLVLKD
Protocol: Compounds were transferred using a Labcyte Echo550 acoustic dispenser to obtain a 12-point serial dilution of 0.001 to 100 μM. Next, PARK7 (15 μL, final concentration of 0.1 μM) was dispensed with a Biotek MultiFlowFX liquid dispenser and incubated for 1 h, followed by dispensing the substrate DiFMUAc (5 μL, final concentration of 300 μM). The fluorescence intensity (FI) signal was monitored with a BMG Labtech PHERAstar plate reader (λex/em 350/450 nm) for 1 h.
The validation was performed in the PBS buffer with a reaction volume of 20 μL per well in triplicate. […] Next, PARK7 (15 μL, final concentration 0.1 μM) was dispensed with a Biotek MultiFlowFX liquid dispenser and incubated for 2 h, followed by dispensing the substrate DiFMUAc (5 μL, final concentration 300 μM). The FI signal was monitored with a BMG Labtech PHERAstar plate reader (λex/em 350/450 nm) for 1 h. The increase of FI signal compared with reference controls was used to calculate the remaining enzyme activity. The inhibition percentage of these 22 compounds was plotted as a heatmap using GraphPad Prism 9.0.1 software. Color gradients indicate inhibition percentage, no inhibiton (white) and full inhibition (blue).

PARK7 [2] = target: T1, PARK7; assay: FP assay with Rhodamine110 probe JYQ-107 (IC50 and hit validation); assay type: binding; design: GST (N, cleaved yes); made in house; host or cells: E. coli BL21(DE3) Rosetta2; details: for inhibition at 12.5 µM: read-out: FP assay %Inhibiton (12.5 µM); for inhibition at 37.5 µM: read-out: FP assay %Inhibiton (37.5 µM); for inhibition at 100 µM: read-out: FP assay %Inhibiton (100 µM)
Protocol: The assay was performed using the conditions as described above with a reaction volume of 20 μL per well in triplicate. Stock solutions of JYQ-88 of 1 and 0.1 mM were prepared. […] The FP signal was monitored with a BMG Labtech PHERAstar plate reader (λex/em 480/520 nm) for 2 h.
The validation was performed using the conditions as described above with a reaction volume of 20 μL per well in triplicate. […] The FP signal was monitored with a BMG Labtech PHERAstar plate reader (λex/em 480/520 nm) for 2 h. The relative loss of FP signal compared with reference controls was used to calculate the remaining enzyme activity. Inhibition percentage of these 40 compounds was plotted as a heatmap using GraphPad Prism 9.0.1 software. Color gradients indicate inhibition percentage, no inhibiton (white) and full inhibition (blue).

[3] = 12.5 µM compound, PARK7 0.1 μM, 2 h preincubation, DiFMUAc 300 μM
[4] = 37.5 µM compound, PARK7 0.1 μM, 2 h preincubation, DiFMUAc 300 μM
[5] = 100 µM compound, PARK7 0.1 μM, 2 h preincubation, DiFMUAc 300 μM
[6] = 12.5 µM compound, PARK7 0.2 μM, 1 h preincubation, JYQ-107 20 nM
[7] = 37.5 µM compound, PARK7 0.2 μM, 1 h preincubation, JYQ-107 20 nM
[8] = 100 µM compound, PARK7 0.2 μM, 1 h preincubation, JYQ-107 20 nM

Row | inhibition at 12.5 µM (PARK7 [2]; [6]) | inhibition at 37.5 µM (PARK7 [2]; [7]) | inhibition at 100 µM (PARK7 [2]; [8]) | SMILES | inhibition at 12.5 µM (PARK7 [2]) | inhibition at 37.5 µM (PARK7 [2]) | inhibition at 100 µM (PARK7 [2]) | also measured
1 | – | – | – | O=S(=O)(F)c1cccc(S(=O)(=O)Nc2cccnc2O)c1 [Z1764375816] | 100% | 100% | 100% | inhibition at 12.5 µM (PARK7 [1]): 97.1%; inhibition at 37.5 µM (PARK7 [1]): 99.2%; inhibition at 100 µM (PARK7 [1]): 100%
2 | – | – | – | CC(C#N)NS(=O)(=O)c1cccc(S(=O)(=O)F)c1 (stereo not drawn) [Z2509451091] | – | – | – | DiFMuAc assay %Inhibiton (12.5 µM) (PARK7 [1]; [3]): 94.5%; DiFMuAc assay %Inhibiton (37.5 µM) (PARK7 [1]; [4]): 95.2%; DiFMuAc assay %Inhibiton (100 µM) (PARK7 [1]; [5]): 94.5%; FP assay %Inhibiton (12.5 µM) (PARK7 [2]; [6]): 100.0%; FP assay %Inhibiton (37.5 µM) (PARK7 [2]; [7]): 100.0%; FP assay %Inhibiton (100 µM) (PARK7 [2]; [8]): 100.0%
3 | – | – | – | COc1ccc(NS(=O)(=O)c2ccc(S(=O)(=O)F)cc2)cn1 [Z1672273218] | 79.5% | 83.8% | 100% | –
4 | 4.5% | 7.6% | 51.6% | O=C(CCl)c1cscn1 [Z2491497305] | – | – | – | –
5 | – | – | – | CC(C)CC(=O)NNS(=O)(=O)c1cccc(S(=O)(=O)F)c1 [Z1764309349] | 100% | 100% | 100% | inhibition at 12.5 µM (PARK7 [1]): 94%; inhibition at 37.5 µM (PARK7 [1]): 94.6%; inhibition at 100 µM (PARK7 [1]): 94.4%
6 | 100% | 100% | 100% | CC1CCc2ccccc2N1C(=O)CCl (stereo not drawn) [Z220564178] | – | – | – | inhibition at 12.5 µM (PARK7 [1]; [3]): 80.5%; inhibition at 37.5 µM (PARK7 [1]; [4]): 79.6%; inhibition at 100 µM (PARK7 [1]; [5]): 91.4%
7 | 11.4% | 16.2% | 54.4% | Cc1cc(C(=O)CCl)c(C)[nH]1 [Z235333089] | – | – | – | –
8 | – | – | – | CCn1ncnc1NS(=O)(=O)c1cccc(S(=O)(=O)F)c1 [Z2509462762] | 100% | 100% | 100% | inhibition at 12.5 µM (PARK7 [1]): 100%; inhibition at 37.5 µM (PARK7 [1]): 100%; inhibition at 100 µM (PARK7 [1]): 100%
9 | – | – | – | COC(=O)Nc1ccc(S(=O)(=O)F)cc1[N+](=O)[O-] [Z1741956298] | – | – | – | FP assay %Inhibiton (12.5 µM) (PARK7 [2]; [6]): 72.6%; FP assay %Inhibiton (37.5 µM) (PARK7 [2]; [7]): 75.8%; FP assay %Inhibiton (100 µM) (PARK7 [2]; [8]): 100.0%
10 | 62.4% | 65.9% | 100% | O=C(CCl)Nc1ccc(SC(F)F)cc1 [Z56896308] | – | – | – | –
11 | 100% | 100% | 100% | CC1=NOC(=O)C1CC(=O)O (stereo not drawn) [Z367451146] | – | – | – | inhibition at 12.5 µM (PARK7 [1]; [3]): 92.2%; inhibition at 37.5 µM (PARK7 [1]; [4]): 100%; inhibition at 100 µM (PARK7 [1]; [5]): 100%
12 | 79.5% | 81.3% | 100% | CC(c1ccc(Cl)cc1)N(C)C(=O)CCl (stereo not drawn) [Z1562123076] | – | – | – | –
13 | – | – | – | O=C1CCC(CC(=O)Nc2cccc(S(=O)(=O)F)c2)CC1 [Z1832812448] | 0% | 0% | 0% | –
14 | 100% | 100% | 100% | O=C(CCl)c1ccc(F)c(C(=O)CCl)c1 [Z2768504793] | – | – | – | inhibition at 12.5 µM (PARK7 [1]; [3]): 98%; inhibition at 37.5 µM (PARK7 [1]; [4]): 98.5%; inhibition at 100 µM (PARK7 [1]; [5]): 95.9%
15 | 23.8% | 25.8% | 68% | NC(=O)c1csc(C(=O)CCl)c1 [Z802671642] | – | – | – | –
16 | 100% | 100% | 100% | CC(C)(C)c1ccc(NC(=O)CCl)cc1 [Z56922153] | – | – | – | inhibition at 12.5 µM (PARK7 [1]; [3]): 87.1%; inhibition at 37.5 µM (PARK7 [1]; [4]): 94.2%; inhibition at 100 µM (PARK7 [1]; [5]): 100%
